Literature values as cited in patent US6538179B1, “Enhanced starch biosynthesis in seeds” (Monsanto Technology LLC, priority 1990, dated 2003).

Target: plant ADPGPP (Solanum tuberosum, UniProt P23509+Q00081)
Sequence (Q00081 whole entry): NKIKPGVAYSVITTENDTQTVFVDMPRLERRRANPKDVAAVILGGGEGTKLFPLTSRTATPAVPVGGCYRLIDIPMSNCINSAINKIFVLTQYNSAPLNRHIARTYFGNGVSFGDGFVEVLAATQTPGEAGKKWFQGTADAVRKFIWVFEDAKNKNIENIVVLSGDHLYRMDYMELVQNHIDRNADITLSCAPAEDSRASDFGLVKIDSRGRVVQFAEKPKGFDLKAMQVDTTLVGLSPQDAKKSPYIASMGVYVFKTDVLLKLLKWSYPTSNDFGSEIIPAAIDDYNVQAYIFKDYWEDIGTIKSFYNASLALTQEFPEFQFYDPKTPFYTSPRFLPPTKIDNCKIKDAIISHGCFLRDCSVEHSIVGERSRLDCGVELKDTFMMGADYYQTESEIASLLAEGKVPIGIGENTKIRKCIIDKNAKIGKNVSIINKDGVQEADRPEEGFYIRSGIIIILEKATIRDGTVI
Sequence (P23509 73-521): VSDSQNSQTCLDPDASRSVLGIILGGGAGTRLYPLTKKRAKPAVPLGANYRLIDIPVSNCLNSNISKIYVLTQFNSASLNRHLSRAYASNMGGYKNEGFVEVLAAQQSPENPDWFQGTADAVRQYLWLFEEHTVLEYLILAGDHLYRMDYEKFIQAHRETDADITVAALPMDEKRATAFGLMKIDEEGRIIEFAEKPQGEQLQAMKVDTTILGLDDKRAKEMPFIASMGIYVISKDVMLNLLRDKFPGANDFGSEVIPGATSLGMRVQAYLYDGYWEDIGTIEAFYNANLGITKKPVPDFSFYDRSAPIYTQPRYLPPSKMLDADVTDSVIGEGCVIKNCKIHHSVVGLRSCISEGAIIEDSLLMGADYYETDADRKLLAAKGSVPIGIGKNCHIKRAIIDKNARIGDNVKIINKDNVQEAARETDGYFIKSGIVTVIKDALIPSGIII

Row | Structure (SMILES) | EC50 (activation of ADPGPP by 3-PGA, read-out: A0.5) [µM] | IC50 (read-out: I0.5, inhibition of ADPGPP by Pi) [µM]
1 | O=C(O)[C@H](O)COP(=O)(O)O [3-PGA, 3-phosphoglycerate] | 75 | 
2 | O=P(O)(O)O [Pi, inorganic phosphate] |  | 45
